Results on 20 molecules are retold here after patent US20260285903A1, “SYNTHESIZED BIOLOGICALLY ACTIVE COMPOUNDS AND METHODS OF MAKING AND USING” (Georgia State University Research Foundation, Inc., priority 2023, published 2026).

Structures are written as SMILES.

The nature of series [1]: Incubation with mouse intestinal microsomes (HPLC). The format is in vitro ADME. The note with it: incubation for 30 minutes. The text has this: The biopharmaceutical properties of the synthesized M13 (5-glutathione-6-shogaol) were characterized.
The subject of the next series is NF-κB signaling pathway. Briefly: NF-κB-dependent luciferase activity in NF-κB/293/GFP-Luc cells treated with TNF-α. Format: cell-based. The note with it: for RLU (% with TNFα): MLY compounds; for RLU (% with TNFα) / reduction of NF-κB activation: TNF-α 10 ng/ml, 18 hours; for Activity compared with M13: Table 2B; for reduction of NF-κB activation / RLU (% with TNF-α), range: 20 µM; for IC50: TNF-α stimulated, FIG. 9, read-out: dose to reduce the NF-κB activation by 50%; for RLU (% with TNF-α), range: Table 2B bins, 1080 min. The procedure: First, the anti-inflammatory activity of MLY compounds on the NF-κB signaling pathway was examined using the NF-xB/293/GFP-LucTnl cell line (System Biosciences). This cell line is specifically designed for use in quantitatively monitoring (by luciferase intensity) transcriptional activation related to the NF-κB signal transduction pathway in vitro. Treatment of NF-κB/293/GFP-Luc™ cells with 10 ng/ml TNF-α for 18 hours induced strong activation of the NF-κB signal transduction pathway (FIGS. 8A and 8B). […] MLY2 and MLY8 induced a strongest 90% reduction of NF-κB activation the anti-inflammatory effect of MLY 2 and 8 was dose-related (FIG. 9). The dose to reduce the NF-κB activation by 50% was […] for M13, 5 μM for MLY2 and 11 μM for MLY8 (FIG. 9).

As to `CCCCC/C=C/C(=O)CCc1ccc(O)c(OC)c1` [6-shogaol, reference compound], the “relative content retained of the input” value in series [1] stood at 61%.

`CCCCCC(CC(=O)CCc1ccc(O)c(OC)c1)SC[C@H](NC(=O)[C@@H](N)CCC(=O)O)C(=O)N[C@@H](C)C(=O)O` (stereo partly drawn) [MLY-1, Glu(alpha)-Cys(6-shogaol)-Ala]: in the series with NF-κB signaling pathway, the “RLU (% with TNFα)” value worked out at 30.3 ± 11.78% and the “Activity compared with M13” value was “>>M13 (15~35%)”.

`CCCCCC(CC(=O)CCc1ccc(O)c(OC)c1)SC[C@H](NC(=O)[C@@H](N)CCC(=O)O)C(=O)N[C@@H](CC(C)C)C(=O)O` (stereo partly drawn) [MLY-2, Glu(alpha)-Cys(6-shogaol)-Leu]: in the series on NF-κB signaling pathway, the “RLU (% with TNFα)” value was 0.78 ± 0.54%, the “reduction of NF-κB activation” value was 90%, the IC50 amounted to 5 µM and the “Activity compared with M13” value is “>>>>M13 (0~5%)”.

Turning to `CCCCCC(CC(=O)CCc1ccc(O)c(OC)c1)SC[C@H](NC(=O)[C@@H](N)CCC(=O)O)C(=O)N1CCC[C@H]1C(=O)O` (stereo partly drawn) [MLY-3, Glu(alpha)-Cys(6-shogaol)-Pro], in the series on NF-κB signaling pathway, the “RLU (% with TNFα)” value was 6.54 ± 8.56% and the “Activity compared with M13” value is recorded as “>M13 (35%~70%)”.

Turning to `CCCCCC(CC(=O)CCc1ccc(O)c(OC)c1)SC[C@H](NC(=O)[C@@H](N)CCC(=O)O)C(=O)N[C@@H](Cc1c[nH]c2ccccc12)C(=O)O` (stereo partly drawn) [MLY-4, Glu(alpha)-Cys(6-shogaol)-Trp], in the series with NF-κB signaling pathway, the “RLU (% with TNFα)” value is on record as 80.65 ± 2.22% and the “Activity compared with M13” value is reported as “= M13 (70%~85%)”.

On to `CCCCCC(CC(=O)CCc1ccc(O)c(OC)c1)SC[C@H](NC(=O)[C@@H](N)CCC(=O)O)C(=O)N[C@@H](Cc1ccc(O)cc1)C(=O)O` (stereo partly drawn) [MLY-5, Glu(alpha)-Cys(6-shogaol)-Tyr], for which, in the series on NF-κB signaling pathway, the “RLU (% with TNFα)” value is 67.18 ± 3.27% and the “Activity compared with M13” value is on record as “>M13 (35%~70%)”.

On to `CCCCCC(CC(=O)CCc1ccc(O)c(OC)c1)SC[C@H](NC(=O)[C@@H](N)CC(=O)O)C(=O)N[C@@H](Cc1ccccc1)C(=O)O` (stereo partly drawn) [MLY-6, Asp(alpha)-Cys(6-shogaol)-Phe], for which, in the series with NF-κB signaling pathway, the “RLU (% with TNFα)” value turned out to be 50.7 ± 1.38% and the “Activity compared with M13” value is “>M13 (35%~70%)”.

As to `CCCCCC(CC(=O)CCc1ccc(O)c(OC)c1)SC[C@H](NC(=O)[C@@H](N)CC(=O)O)C(=O)N[C@@H](CC(C)C)C(=O)O` (stereo partly drawn) [MLY-7, Asp(alpha)-Cys(6-shogaol)-Leu], in the series with NF-κB signaling pathway, the “RLU (% with TNFα)” value was determined as 38.6 ± 3.96% and the “Activity compared with M13” value is on record as “>M13 (35%~70%)”.

On to `CCCCCC(CC(=O)CCc1ccc(O)c(OC)c1)SC[C@H](NC(=O)[C@@H](N)CC(=O)O)C(=O)N[C@@H](CCSC)C(=O)O` (stereo partly drawn) [MLY-8, Asp(alpha)-Cys(6-shogaol)-Met], for which, in the series on NF-κB signaling pathway, the “RLU (% with TNFα)” value turned out to be 8.04 ± 4.06%, the “reduction of NF-κB activation” value is 90%, the IC50 amounted to 11 µM and the “Activity compared with M13” value is “>>>M13 (5%~15%)”.

`CCCCCC(CC(=O)CCc1ccc(O)c(OC)c1)SC[C@H](NC(=O)[C@@H](N)CC(=O)O)C(=O)N1CCC[C@H]1C(=O)O` (stereo partly drawn) [MLY-9, Asp(alpha)-Cys(6-shogaol)-Pro]: in the series on NF-κB signaling pathway, the “RLU (% with TNFα)” value was found to be 92.85 ± 2.15%; the “Activity compared with M13” value is listed as “<M13 (>90%)”; the “RLU (% with TNF-α), range” value is listed as more than 90%.

Take `CCCCCC(CC(=O)CCc1ccc(O)c(OC)c1)SC[C@H](NC(=O)[C@@H](N)CC(=O)O)C(=O)N[C@H](C(=O)O)C(C)C` (stereo partly drawn) [MLY-10, Asp(alpha)-Cys(6-shogaol)-Val]: in the series on NF-κB signaling pathway, the “RLU (% with TNFα)” value was determined as 66.68 ± 11.06% and the “Activity compared with M13” value is “>M13 (35%~70%)”.

In the case of `CCCCCC(CC(=O)CCc1ccc(O)c(OC)c1)SC[C@H](NC(=O)[C@@H](N)CC(=O)O)C(=O)N[C@@H](Cc1c[nH]c2ccccc12)C(=O)O` (stereo partly drawn) [MLY-11, Asp(alpha)-Cys(6-shogaol)-Trp], in the series with NF-κB signaling pathway, the “RLU (% with TNFα)” value was found to be 24.75 ± 0.79% and the “Activity compared with M13” value is “>>M13 (15~35%)”.

Turning to `CCCCCC(CC(=O)CCc1ccc(O)c(OC)c1)SC[C@H](NC(=O)[C@@H](N)CC(=O)O)C(=O)N[C@@H](Cc1ccc(O)cc1)C(=O)O` (stereo partly drawn) [MLY-12, Asp(alpha)-Cys(6-shogaol)-Tyr], in the series on NF-κB signaling pathway, the “RLU (% with TNFα)” value stood at 47.43 ± 5.5% and the “Activity compared with M13” value was “>M13 (35%~70%)”.

Turning to `CCCCCC(CC(=O)CCc1ccc(O)c(OC)c1)SC[C@H](NC(=O)[C@@H](N)CCC(=O)O)C(=O)N[C@@H](CCSC)C(=O)O` (stereo partly drawn) [MLY-13, Glu(alpha)-Cys(6-shogaol)-Met], in the series with NF-κB signaling pathway, the “RLU (% with TNFα)” value is given as 60.22 ± 13.55% and the “Activity compared with M13” value is given as “>M13 (35%~70%)”.

With `CCCCCC(CC(=O)CCc1ccc(O)c(OC)c1)SC[C@H](NC(=O)[C@@H](N)CC(=O)O)C(=O)N[C@H](C(=O)O)[C@@H](C)CC` (stereo partly drawn) [MLY-14, Asp(alpha)-Cys(6-shogaol)-Ile], in the series on NF-κB signaling pathway, the “RLU (% with TNFα)” value is recorded as 80.67 ± 11.28% and the “Activity compared with M13” value is listed as “= M13 (70%~85%)”.

As for `CCCCCC(CC(=O)CCc1ccc(O)c(OC)c1)SC[C@H](NC(=O)[C@@H](N)CCC(=O)O)C(=O)N[C@@H](Cc1ccccc1)C(=O)O` (stereo partly drawn) [MLY-15, Glu(alpha)-Cys(6-shogaol)-Phe], in the series with NF-κB signaling pathway, the “RLU (% with TNFα)” value is reported as 47.98 ± 9.35% and the “Activity compared with M13” value is recorded as “>M13 (35%~70%)”.

Turning to `CCCCCC(CC(=O)CCc1ccc(O)c(OC)c1)SC[C@H](NC(=O)[C@@H](N)CCC(=O)O)C(=O)N[C@H](C(=O)O)[C@@H](C)CC` (stereo partly drawn) [MLY-16, Glu(alpha)-Cys(6-shogaol)-Ile], in the series with NF-κB signaling pathway, the “RLU (% with TNFα)” value is 68.19 ± 4.46% and the “Activity compared with M13” value is on record as “>M13 (35%~70%)”.

For `CCCCCC(CC(=O)CCc1ccc(O)c(OC)c1)SC[C@H](NC(=O)[C@@H](N)CCC(=O)O)C(=O)N[C@H](C(=O)O)C(C)C` (stereo partly drawn) [MLY-17, Glu(alpha)-Cys(6-shogaol)-Val], in the series on NF-κB signaling pathway, the “RLU (% with TNFα)” value was found to be 45.13 ±1.96% and the “Activity compared with M13” value is reported as “>M13 (35%~70%)”.

For the molecule `CCCCCC(CC(=O)CCc1ccc(O)c(OC)c1)SC[C@H](NC(=O)[C@@H](N)CC(=O)O)C(=O)NCC(=O)O` (stereo partly drawn) [MLY-18, Asp(alpha)-Cys(6-shogaol)-Gly], in the series on NF-κB signaling pathway, the “RLU (% with TNFα)” value worked out at 112.31 ± 7.28%; the “Activity compared with M13” value is reported as “<M13 (>90%)”; the “RLU (% with TNF-α), range” value is more than 90%.

Take `CCCCCC(CC(=O)CCc1ccc(O)c(OC)c1)SC[C@H](NC(=O)[C@@H](N)CC(=O)O)C(=O)N[C@@H](C)C(=O)O` (stereo partly drawn) [MLY-19, Asp(alpha)-Cys(6-shogaol)-Ala]: in the series with NF-κB signaling pathway, the “RLU (% with TNFα)” value amounted to 67.04 ± 11.04% and the “Activity compared with M13” value is recorded as “>M13 (35%~70%)”.
